ChEMBL document CHEMBL1155312, “In vivo evaluation of diaminodiphenyls: anticonvulsant agents with minimal acute neurotoxicity” (Bioorg Med Chem Lett, 2009)

How the values were obtained:
Mus musculus [1] = assay: Anticonvulsant activity in CF1 albino mouse assessed as inhibition of maximal electric shock-induced seizure at 300 mg/kg, ip after 0.5 hrs; assay type: functional; details: route intraperitoneal
Rattus norvegicus [2] = assay: Anticonvulsant activity in Sprague-Dawley rat assessed as inhibition of maximal electric shock-induced seizure at 30 mg/kg, po after 0.5 hrs; assay type: functional
Rattus norvegicus [3] = assay: Neurotoxicity in Sprague-Dawley rat at 500 mg/kg, po by positional sense and gait and stance test; assay type: toxicity, organism-based; set-up: dose 500 mg/kg, route oral; details: in vivo
Mus musculus [4] = assay: Anticonvulsant activity in CF1 albino mouse assessed as inhibition of maximal electric shock-induced seizure at 30 mg/kg, ip after 4 hrs; assay type: functional; details: route intraperitoneal
Mus musculus [5] = assay: Anticonvulsant activity in CF1 albino mouse assessed as inhibition of maximal electric shock-induced seizure at 100 mg/kg, ip after 0.5 hrs; assay type: functional; details: route intraperitoneal
Mus musculus [6] = assay: Anticonvulsant activity in CF1 albino mouse assessed as inhibition of maximal electric shock-induced seizure at 300 mg/kg, ip after 4 hrs; assay type: functional; details: route intraperitoneal
Rattus norvegicus [7] = assay: Anticonvulsant activity in Sprague-Dawley rat assessed as inhibition of maximal electric shock-induced seizure at 30 mg/kg, po after 0.25 hrs; assay type: functional
Rattus norvegicus [8] = assay: Anticonvulsant activity in Sprague-Dawley rat assessed as inhibition of maximal electric shock-induced seizure at 30 mg/kg, po after 1 hrs; assay type: functional
Rattus norvegicus [9] = assay: Anticonvulsant activity in Sprague-Dawley rat assessed as inhibition of maximal electric shock-induced seizure at 30 mg/kg, po after 4 hrs; assay type: functional
Rattus norvegicus [10] = assay: Anticonvulsant activity in Sprague-Dawley rat assessed as inhibition of maximal electric shock-induced seizure at 30 mg/kg, po after 2 hrs; assay type: functional
Mus musculus [11] = assay: Anticonvulsant activity in CF1 albino mouse assessed as inhibition of maximal electric shock-induced seizure at 100 mg/kg, ip after 4 hrs; assay type: functional; details: route intraperitoneal
Mus musculus [12] = assay: Anticonvulsant activity in CF1 albino mouse assessed as inhibition of maximal electric shock-induced seizure at 30 mg/kg, ip after 0.5 hrs; assay type: functional; details: route intraperitoneal
Rattus norvegicus [13] = assay: Neurotoxicity in Sprague-Dawley rat at 30 mg/kg, po by positional sense and gait and stance test; assay type: toxicity, organism-based; set-up: dose 30 mg/kg, route oral; details: in vivo
Mus musculus [14] = assay: Neurotoxicity in CF1 albino mouse at 100 mg/kg, ip by rotarod test; assay type: toxicity, organism-based; set-up: dose 100 mg/kg, route intraperitoneal; details: in vivo
Rattus norvegicus [15] = assay: Neurotoxicity in Sprague-Dawley rat at 250 mg/kg, po by positional sense and gait and stance test; assay type: toxicity, organism-based; set-up: dose 250 mg/kg, route oral; details: in vivo
Mus musculus [16] = assay: Anticonvulsant activity in CF1 albino mouse assessed as inhibition of minimal clonic seizure at 30 mg/kg, ip after 1 hrs; assay type: functional; details: route intraperitoneal
Mus musculus [17] = assay: Anticonvulsant activity in CF1 albino mouse assessed as inhibition of minimal clonic seizure at 100 mg/kg, ip after 4 hrs; assay type: functional; details: route intraperitoneal
Mus musculus [18] = assay: Anticonvulsant activity in CF1 albino mouse assessed as inhibition of minimal clonic seizure at 100 mg/kg, ip after 2 hrs; assay type: functional; details: route intraperitoneal
Rattus norvegicus [19] = assay: Neurotoxicity in Sprague-Dawley rat at 500 mg/kg, po by positional sense and gait and stance test after 1 hrs; assay type: toxicity, organism-based; set-up: dose 500 mg/kg, route oral; details: in vivo
Mus musculus [20] = assay: Anticonvulsant activity in CF1 albino mouse assessed as inhibition of minimal clonic seizure at 100 mg/kg, ip after 1 hrs; assay type: functional; details: route intraperitoneal
Mus musculus [21] = assay: Anticonvulsant activity in CF1 albino mouse assessed as inhibition of minimal clonic seizure at 100 mg/kg, ip after 0.25 hrs; assay type: functional; details: route intraperitoneal
Mus musculus [22] = assay: Anticonvulsant activity in CF1 albino mouse assessed as inhibition of minimal clonic seizure at 100 mg/kg, ip after 0.5 hrs; assay type: functional; details: route intraperitoneal
Mus musculus [23] = assay: Anticonvulsant activity in CF1 albino mouse assessed as inhibition of minimal clonic seizure at 30 mg/kg, ip after 0.5 hrs; assay type: functional; details: route intraperitoneal
Mus musculus [24] = assay: Anticonvulsant activity in CF1 albino mouse assessed as inhibition of minimal clonic seizure at 30 mg/kg, ip after 0.25 hrs; assay type: functional; details: route intraperitoneal
Mus musculus [25] = assay: Anticonvulsant activity in CF1 albino mouse assessed as inhibition of minimal clonic seizure at 80 mg/kg, ip after 1 hrs; assay type: functional; details: route intraperitoneal
Rattus norvegicus [26] = assay: Anticonvulsant activity against kindle motor-induced seizure in rat assessed as after discharge duration at 100 mg/kg, ip after 135 mins by hippocampal kindling screen test; assay type: functional, Hippocampus; details: route intraperitoneal
Rattus norvegicus [27] = assay: Anticonvulsant activity against kindle motor-induced seizure in rat assessed as after discharge duration at 100 mg/kg, ip after 105 mins by hippocampal kindling screen test; assay type: functional, Hippocampus; details: route intraperitoneal
Rattus norvegicus [28] = assay: Anticonvulsant activity against kindle motor-induced seizure in rat assessed as after discharge duration at 100 mg/kg, ip after 15 mins by hippocampal kindling screen test; assay type: functional, Hippocampus; details: route intraperitoneal
Mus musculus [29] = assay: Anticonvulsant activity in CF1 albino mouse assessed as inhibition of minimal clonic seizure at 80 mg/kg, ip after 0.25 hrs; assay type: functional; details: route intraperitoneal
Rattus norvegicus [30] = assay: Anticonvulsant activity against kindle motor-induced seizure in rat assessed as after discharge duration at 100 mg/kg, ip after 255 mins by hippocampal kindling screen test; assay type: functional, Hippocampus; details: route intraperitoneal
Mus musculus [31] = assay: Anticonvulsant activity in CF1 albino mouse assessed as inhibition of minimal clonic seizure at 30 mg/kg, ip after 2 hrs; assay type: functional; details: route intraperitoneal
Rattus norvegicus [32] = assay: Anticonvulsant activity against kindle motor-induced seizure in rat assessed as after discharge duration at 100 mg/kg, ip after 225 mins by hippocampal kindling screen test; assay type: functional, Hippocampus; details: route intraperitoneal
Rattus norvegicus [33] = assay: Anticonvulsant activity against kindle motor-induced seizure in rat assessed as after discharge duration at 100 mg/kg, ip after 165 mins by hippocampal kindling screen test; assay type: functional, Hippocampus; details: route intraperitoneal
Mus musculus [34] = assay: Anticonvulsant activity in CF1 albino mouse assessed as inhibition of minimal clonic seizure at 80 mg/kg, ip after 2 hrs; assay type: functional; details: route intraperitoneal
Mus musculus [35] = assay: Neurotoxicity in CF1 albino mouse at 300 mg/kg, ip by rotarod test after 4 hrs; assay type: toxicity, organism-based; set-up: dose 300 mg/kg, route intraperitoneal; details: in vivo
Mus musculus [36] = assay: Anticonvulsant activity in CF1 albino mouse assessed as inhibition of minimal clonic seizure at 80 mg/kg, ip after 4 hrs; assay type: functional; details: route intraperitoneal
Rattus norvegicus [37] = assay: Anticonvulsant activity against kindle motor-induced seizure in rat assessed as after discharge duration at 100 mg/kg, ip after 45 mins by hippocampal kindling screen test; assay type: functional, Hippocampus; details: route intraperitoneal
Rattus norvegicus [38] = assay: Anticonvulsant activity against kindle motor-induced seizure in rat assessed as after discharge duration at 100 mg/kg, ip after 75 mins by hippocampal kindling screen test; assay type: functional, Hippocampus; details: route intraperitoneal
Mus musculus [39] = assay: Anticonvulsant activity in CF1 albino mouse assessed as inhibition of minimal clonic seizure at 80 mg/kg, ip after 0.5 hrs; assay type: functional; details: route intraperitoneal
Rattus norvegicus [40] = assay: Anticonvulsant activity against kindle motor-induced seizure in rat assessed as after discharge duration at 100 mg/kg, ip after 195 mins by hippocampal kindling screen test; assay type: functional, Hippocampus; details: route intraperitoneal

Row | Compound | inhibition in vivo at 300 mg/kg (Mus musculus [1]) | inhibition in vivo at 30 mg/kg (Rattus norvegicus [2]) | inhibition in vivo at 30 mg/kg (Mus musculus [4]) | inhibition in vivo at 100 mg/kg (Mus musculus [5]) | inhibition in vivo at 300 mg/kg (Mus musculus [6]) | inhibition in vivo at 30 mg/kg (Rattus norvegicus [7]) | inhibition in vivo at 30 mg/kg (Rattus norvegicus [8]) | inhibition in vivo at 30 mg/kg (Rattus norvegicus [9]) | inhibition in vivo at 30 mg/kg (Rattus norvegicus [10]) | inhibition in vivo at 100 mg/kg (Mus musculus [11]) | inhibition in vivo at 30 mg/kg (Mus musculus [12]) | Activity (Mus musculus [14]) | inhibition in vivo at 30 mg/kg (Mus musculus [16]) | inhibition in vivo at 100 mg/kg (Mus musculus [17]) | inhibition in vivo at 100 mg/kg (Mus musculus [18]) | inhibition in vivo at 100 mg/kg (Mus musculus [20]) | inhibition in vivo at 100 mg/kg (Mus musculus [21]) | inhibition in vivo at 100 mg/kg (Mus musculus [22]) | inhibition in vivo at 30 mg/kg (Mus musculus [23]) | inhibition in vivo at 30 mg/kg (Mus musculus [24]) | also measured
1 | Nc1ccc(NC(=O)c2ccc(N)cc2)cc1 | 100% | 75% | 0% | 66% | 100% | 50% | 50% | 50% | 25% | 0% | 0% | – | – | – | – | – | – | – | – | – | Activity (Rattus norvegicus [3]): Non-toxic
2 | Nc1ccc(Oc2ccc(N)cc2)cc1 | 100% | 100% | 0% | 100% | 100% | 100% | 75% | 100% | 75% | 100% | 0% | – | – | – | – | – | – | – | – | – | Activity (Rattus norvegicus [13]): Non-toxic
3 | Nc1ccc(Nc2cccc(N)c2)cc1 | 100% | 50% | 0% | 100% | 100% | 0% | 75% | 50% | 50% | 100% | 0% | Non-toxic | – | – | – | – | – | – | – | – | Activity (Rattus norvegicus [15]): Non-toxic
4 | Nc1ccc(C(=O)c2ccc(N)cc2)cc1 | 100% | 100% | 0% | 100% | 100% | 50% | 75% | 75% | 100% | 100% | 0% | – | 0% | 0% | 0% | 100% | 100% | 100% | 0% | 0% | Activity (Rattus norvegicus [19]): Non-toxic
5 | Nc1ccc(Cc2ccc(N)cc2)cc1 [4,4'-METHYLENEDIANILINE] | 100% | 75% | 0% | 100% | 100% | 100% | 100% | 50% | 100% | 0% | 0% | Non-toxic | – | – | – | – | – | – | – | – | –
6 | Nc1ccc(Sc2ccc(N)cc2)cc1 [4,4'-THIODIANILINE] | 100% | 100% | 0% | 66% | 100% | 100% | 100% | 100% | 100% | 100% | 0% | – | 25% | 0% | 100% | 100% | 100% | 100% | 25% | 0% | inhibition in vivo at 80 mg/kg (Mus musculus [25]): 100%; Activity (Rattus norvegicus [26]): 34.71 s; Activity (Rattus norvegicus [27]): 33.29 s; Activity (Rattus norvegicus [28]): 19.14 s; inhibition in vivo at 80 mg/kg (Mus musculus [29]): 100%; Activity (Rattus norvegicus [30]): 65.43 s; inhibition in vivo at 30 mg/kg (Mus musculus [31]): 25%; Activity (Rattus norvegicus [32]): 71.29 s; Activity (Rattus norvegicus [33]): 57.43 s; inhibition in vivo at 80 mg/kg (Mus musculus [34]): 75%; Activity (Mus musculus [35]): Non-toxic; inhibition in vivo at 80 mg/kg (Mus musculus [36]): 0%; Activity (Rattus norvegicus [37]): 25.29 s; Activity (Rattus norvegicus [38]): 24.86 s; inhibition in vivo at 80 mg/kg (Mus musculus [39]): 100%; Activity (Rattus norvegicus [40]): 55.29 s
